Results on two molecules are retold here after paper PMC12480751, “A quantitative high-throughput screening pipeline to identify small molecule inhibitors of Chikungunya nsP2 protease” (Scientific Reports, 2025).

Data set [1] has as its target T1, CHIKV nsP2pro (Chikungunya virus, UniProt Q8JUX6). Nature of the data set: FRET-based nsP2pro proteolytic assay with peptide 2 (nsp3/4 site), 1,536-well qHTS. It counts as biochemical. In general terms: qHTS replaces the single test concentration by a dilution series.
Another data set concerns the target T2, nsP2 protease (Chikungunya virus, UniProt Q8JUX6).
T2 construct: expressed in transfected cells; host or cells: HEK293T (the results text says HEK293), transient co-transfection in pcDNA3.1(+)
T2 sequence (Q8JUX6 755-1333 limits assumed): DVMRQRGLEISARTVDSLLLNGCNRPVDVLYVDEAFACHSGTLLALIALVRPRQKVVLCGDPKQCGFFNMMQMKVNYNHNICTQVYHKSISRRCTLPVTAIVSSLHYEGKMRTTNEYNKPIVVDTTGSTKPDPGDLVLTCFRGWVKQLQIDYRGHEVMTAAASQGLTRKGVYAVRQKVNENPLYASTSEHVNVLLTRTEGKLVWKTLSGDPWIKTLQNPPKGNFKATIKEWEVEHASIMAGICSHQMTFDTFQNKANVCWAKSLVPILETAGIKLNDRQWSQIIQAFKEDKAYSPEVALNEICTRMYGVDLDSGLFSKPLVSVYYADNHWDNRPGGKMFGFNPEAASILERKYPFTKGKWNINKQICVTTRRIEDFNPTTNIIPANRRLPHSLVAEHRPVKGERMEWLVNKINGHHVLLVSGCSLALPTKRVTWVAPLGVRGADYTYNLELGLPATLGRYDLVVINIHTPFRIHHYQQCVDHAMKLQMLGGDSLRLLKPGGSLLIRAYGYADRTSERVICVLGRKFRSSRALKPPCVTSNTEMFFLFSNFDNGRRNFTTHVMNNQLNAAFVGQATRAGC
Nature of the data set: cell-based. Type of data set: cell-based.

The test system of the next data set is SNB19 cells. Briefly: CellTiter-Glo cell viability assay of SNB19 cells. Particulars: 48 h. Type of data set: cell-based, human. How it is done:
Cells were harvested in growth media and dispensed (5 µL /1,000 cells/well) onto 1536-well white plates (Aurora #EWB041000A) using a Multidrop Combi. Control and test compounds were added (25 nL) using an Echo 650 liquid handler. Plates were incubated for 48 h at 37 °C and 5% CO2 and then equilibrated to room temperature prior to addition of 4 µL /well of CellTiter-Glo (Promega) using a Multidrop Combi. Plates were subsequently incubated for 15 min at room temperature and centrifuged for 1 min at 1000 rpm. Luminescence was read on a ViewLux imager equipped with clear filters.

The next data set concerns the target T3, full-length nsP2 (Chikungunya virus, UniProt Q8JUX6, C1333A).
T3 sequence (Q8JUX6 536-1333 C1333A): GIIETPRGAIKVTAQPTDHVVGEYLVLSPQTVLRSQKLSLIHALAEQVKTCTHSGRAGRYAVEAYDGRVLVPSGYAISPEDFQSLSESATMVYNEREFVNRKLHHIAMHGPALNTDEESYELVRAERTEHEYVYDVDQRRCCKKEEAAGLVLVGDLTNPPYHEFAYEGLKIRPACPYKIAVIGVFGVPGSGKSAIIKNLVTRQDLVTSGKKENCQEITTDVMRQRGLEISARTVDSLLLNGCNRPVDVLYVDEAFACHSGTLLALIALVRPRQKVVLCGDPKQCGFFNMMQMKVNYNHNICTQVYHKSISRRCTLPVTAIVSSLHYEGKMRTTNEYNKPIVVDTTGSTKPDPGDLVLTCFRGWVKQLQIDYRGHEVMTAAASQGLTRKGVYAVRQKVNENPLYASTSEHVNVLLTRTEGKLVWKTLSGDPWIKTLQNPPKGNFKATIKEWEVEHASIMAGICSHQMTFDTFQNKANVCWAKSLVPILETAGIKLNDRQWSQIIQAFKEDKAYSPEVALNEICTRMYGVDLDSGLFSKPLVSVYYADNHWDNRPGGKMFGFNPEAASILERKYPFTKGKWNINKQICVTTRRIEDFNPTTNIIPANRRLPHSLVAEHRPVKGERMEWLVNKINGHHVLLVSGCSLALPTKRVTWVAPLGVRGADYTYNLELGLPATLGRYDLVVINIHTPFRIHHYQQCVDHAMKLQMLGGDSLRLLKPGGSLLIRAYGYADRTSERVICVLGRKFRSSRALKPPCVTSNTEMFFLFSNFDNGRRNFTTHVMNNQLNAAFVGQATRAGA
Nature of the data set: FRET-based full-length nsP2 proteolytic assay with peptide 2. It counts as biochemical. Particulars: full-length nsP2 and peptide 2; read-out: IC50, inhibition of nsp3/4 cleavage by full-length enzyme. The protocol: (§1) To gain further insight on their therapeutic potential, we investigated whether confirmed hits inhibit proteolytic activity in the context of full-length nsP2 protein rather than isolated protease domain[13]. To test the set of confirmed inhibitors, we chose peptide 2 substrate and full-length enzyme concentrations of 1 μM and 150 nM, respectively. Compound activity correlated well between nsP2pro and full-length enzyme (Fig. 2A). Additionally, we tested whether hits inhibit proteolysis of the nsP2/3 site.
All reactions were incubated at room temperature (RT).
Two point five μM peptide 2 substrate and 150 nM nsP2pro were selected to run the assay into 1536-well plate format. ZnAc was used as a positive control in the assay (50 µM). […] For primary screens, compounds were tested at 7 concentrations, 1:3 dilution points ranging from 25 µM to 34 nM. […] Four µL nsP2pro enzyme mix in assay buffer (10 mM Tris⋅HCl pH 8.0 with 0.01% Tween 20) was dispensed into the plate using a BioRAPTR FRD liquid dispenser (Beckman Coulter). […] After 1 h, plates were immediately read on a ViewLux high-throughput CCD imager (Exposure = 10 s, Gain = High, Speed = Slow, Binning = 2X). The above assay was also incorporated in the NCATS HTS facility, which allowed for robotic liquid and compound dispensing, microplate handling, and fluorescence reading. […]

Data set [2] addresses T1, CHIKV nsP2pro. Briefly: FRET-based nsP2pro proteolytic assay with peptide 3 (nsp2/3 site). It counts as biochemical. Particulars: nsP2pro and peptide 3; read-out: IC50, inhibition of cleavage of nsp2/3 peptide by nsp2pro. How it is done:
as §1
Two point five μM peptide 2 substrate and 150 nM nsP2pro were selected to run the assay into 1536-well plate format. ZnAc was used as a positive control in the assay (50 µM). […] For primary screens, compounds were tested at 7 concentrations, 1:3 dilution points ranging from 25 µM to 34 nM. […] Four µL nsP2pro enzyme mix in assay buffer (10 mM Tris⋅HCl pH 8.0 with 0.01% Tween 20) was dispensed into the plate using a BioRAPTR FRD liquid dispenser (Beckman Coulter). The plate was incubated at RT (protected from light) for 15 min before addition of 4 µL substrate in assay buffer. After 1 h, plates were immediately read on a ViewLux high-throughput CCD imager (Exposure = 10 s, Gain = High, Speed = Slow, Binning = 2X). The above assay was also incorporated in the NCATS HTS facility, which allowed for robotic liquid and compound dispensing, microplate handling, and fluorescence reading. […]

The subject of the next data set is CHIKV. Details: method as in PMID 30018455. Particulars: cited from earlier work.

SMILES strings stand for the structures.

As a reminder, the AC50 is the midpoint of the concentration-response curve, whichever way the signal moves. In general, CC50 refers to the concentration at which the toxic effect on the cells reaches its halfway point.

For the molecule `CC(C)n1nc(C#Cc2ccccc2)c2c(N)ncnc21` [SPP 86], the “Enzymatic % Efficacy” value on CHIKV nsP2pro [1] (nsP2pro biochemical assay, 13 cell-active hits) was -114.8%. For the same molecule, the IC50 at CHIKV nsP2pro [1] (nsP2pro biochemical assay, 13 cell-active hits, read-out: Enzymatic IC50) is 8 µM. Moreover, at nsP2 protease, the “Cell-based % Efficacy” value turned out to be 146.3%. Further, the AC50 on nsP2 protease (read-out: Cell-based AC50) came out at 18.3 µM. The half-maximal cytotoxic concentration (CC50) in the data set with SNB19 cells came out at 16.4 µM.
`CC(=O)[O-].CC(=O)[O-].[Zn+2]` [ZnAc, Zinc acetate]: the IC50 at CHIKV nsP2pro [1] (nsP2pro and peptide 2, read-out: IC50, inhibition of nsp3/4 cleavage by nsP2pro) was 0.192 ± 0.012 µM; on full-length nsP2, 0.137 ± 0.011 µM; on CHIKV nsP2pro [2], 0.685 ± 0.077 µM. Besides, the “effect on Nluc reporter signal in cellular nsp2 proteolytic assay” value on nsP2 protease is on record as “did not increase Nluc reporter signal”. For the same molecule, in the data set on CHIKV, the “concentrations effective in preventing CHIKV viral infection” value is listed as “higher than 60 µM”.
